Legend:
clinical = conditions: human, in vivo
[1] = tested on: IL-23 induced phosphorylation of STAT3; assay: Ex vivo whole blood phosphorylation of STAT3 assay, FIH 25 mg MAD cohort; type: in vivo; conditions: human, 25 mg oral once a day, 3 subjects, 100 ng/mL IL-23
Protocol: An ex vivo whole blood IL-23 induced STAT3 phosphorylation assay was also used to evaluate the systemic pharmacodynamic activity of the orally administered peptide of SEQ ID NO: 1 in the first-in-human study. This proximal IL-23R signaling assay was performed by analyzing IL-23 induced phosphorylation of STAT3 using a flow cytometer. Assay was implemented in the 25 mg MAD cohort, at multiple timepoints on Day 1 and Day 10, where healthy volunteers were given placebo or 25 mg of peptide of SEQ ID NO: 1 orally once a day for 10 consecutive days. On Days 1 and 10, when the assay was performed, subjects received their dose of placebo or peptide of SEQ ID NO: 1 following an overnight fast of approximately 10 hours and remained fasted for approximately 4 hours following dosing. […] Therefore, lower STAT3 phosphorylation as readout by the assay is associated with sufficient exposure to achieve systemic pharmacodynamic activity of orally dosed peptide of SEQ ID NO: 1. Since there is no dilution of blood required, and the readout is more proximal than IFNγ production, and the response is measured in the specific subset of immune cells that respond to IL-23, the pSTAT3 assay is a more sensitive pharmacodynamic readout than IFNγ. […]

Question: Which results are given for `CC(=O)NCCCC[C@@H]1NC(=O)[C@H](Cc2c[nH]c3c(C)cccc23)NC(=O)[C@H]([C@@H](C)O)NC(=O)[C@H](CC(N)=O)NC(=O)[C@@H](NC(C)=O)C(C)(C)SSC(C)(C)[C@@H](C(=O)N[C@@H](Cc2ccc(OCCN)cc2)C(=O)N[C@@H](Cc2ccc3ccccc3c2)C(=O)NC2(C(=O)N[C@@H](CCC(=O)O)C(=O)N[C@@H](CC(N)=O)C(=O)N[C@@H](Cc3cccnc3)C(=O)N(C)CC(N)=O)CCOCC2)NC1=O` [SEQ ID NO: 1, Ac-[Pen]*—N-T-[W(7-Me)]-[Lys(Ac)]-[Pen]*-Phe[4-(2-aminoethoxy)]-[2-Nal]-[THP]-E-N-[3-Pal]-Sarc-NH2]?
Answer: half-life (clinical): 10 to 12 h; AUC (clinical; po, 10 mg): 1.56 ng·h/mL; AUC (clinical; po, 25 mg): 6.47 ng·h/mL; AUC (clinical; po, 100 mg): 20.8 ng·h/mL; AUC (clinical; po, 300 mg): 51 ng·h/mL; half-life (clinical; po, 300 mg): 9.28 h; AUC (clinical; po, 1000 mg): 141 ng·h/mL; Cmax (clinical; po, 1000 mg): 8.3 ng/mL; Tmax (clinical; po, 1000 mg): 4.5 h; inhibition of STAT3 phosphorylation in memory CD26high CD4+ T cells, memory CD26high CD8+ T cells and CD26high NKT cells [1]: near-complete inhibition
